In US10640507B2, “PBD antibacterial agents” (KING'S COLLEGE LONDON, priority 2015, dated 2020):
In brackets after ≈: the same amount, converted by molar mass. Where two headings read alike, the source gives them in different places.

How the values were obtained:
[1] = test system: methicillin sensitive S. aureus ATTC 9144 (NCTC 6571); experiment: General MIC protocol, Gram positive panel; assay type: cell-based; conditions: Staphylococcus aureus, MSSA / NCTC 6571; MSSA 9144
Description: (§1) General Minimum Inhibitory Concentration (MIC) Protocol
(§2) 1. Grow up cultures of bacterial strains to be tested overnight.
(§3) 2. Dilute down overnight cultures to concentration of 1×10^6 bacteria/ml (OD0.01) in Tryptic soy broth (TSB).
(§4) 3. Add 100 μl of TSB media to column 2-column 12 in 96 well plate (keeping column 1 clear).
(§5) 4. Make up compound to a concentration of 64 μg/ml in water (or alternatively to twice the chosen maximum concentration to be tested).
(§6) 5. Add 100 μl of antibiotic solution to the 1st and 2nd columns.
(§7) 6. Using a multichannel pipette take 100 μl from the 2nd column wells and pipette into 3rd column wells and repeat down the 96 well plate (remembering to include controls i.e. uninfected media and media with no antibiotic).
(§8) 7. To each well (except uninfected control row H) add 100 μl of bacterially infected media at a concentration of 1×10^6/ml.
(§9) 8. This dilutes down the concentration of the antibiotic by half (top dose is therefore 32 μg/ml in column 1) and also gives you a starting bacterial concentration of 5×10^5/ml.
(§10) 9. Wrap plate with parafilm to prevent evaporation.
(§11) 10. Leave at desired temperature (37° C. unless specified elsewhere) for 20 hours.
(§12) 11. Next day check plates for growth and measure optical density (i.e. absorbance) at a wavelength of 600 nm (OD600).
(§13) An example of such a plate is shown in FIG. 1 where column A represents wells that receive the top dose 100 μl; column B represents wells that receive the top dose 100 μl+100 μl TSB; and column C represents wells that receive 100 μl TSB. Row H which is marked by a box labelled D represents a blank where the cells receive no bacteria.

[2] = test system: EMRSA-16; experiment: General MIC protocol, Gram positive panel; assay type: cell-based
Description: as §1, §2, §3, §4, §5, §6, §7, §8, §9, §10, §11, §12, §13

[3] = test system: E. faecalis VSE NCTC 775; experiment: General MIC protocol, Gram positive panel; assay type: cell-based; conditions: Enterococcus faecalis, NCTC775; VSE 775
Description: as §1, §2, §3, §4, §5, §6, §7, §8, §9, §10, §11, §12, §13

[4] = test system: E. faecium VRE NCTC 12204; experiment: General MIC protocol, Gram positive panel; assay type: cell-based
Description: as §1, §2, §3, §4, §5, §6, §7, §8, §9, §10, §11, §12, §13

[5] = test system: EMRSA-15; experiment: General MIC protocol, Gram positive panel; assay type: cell-based
Description: as §1, §2, §3, §4, §5, §6, §7, §8, §9, §10, §11, §12, §13

[6] = test system: E. faecalis VRE NCTC 12201; experiment: General MIC protocol, Gram positive panel; assay type: cell-based
Description: as §1, §2, §3, §4, §5, §6, §7, §8, §9, §10, §11, §12, §13

[7] = test system: HeLa (Cervical cancer cell line); experiment: MTT cytotoxicity assay; assay type: cell-based; conditions: Homo sapiens, MTT, 24 h continuous exposure, read-out: IC50 HeLa (Cervical cancer cell line)
Description: (§14) Two immortalised human cell lines, HeLa and WI38 were used for cytotoxicity screening of the compounds. HeLa is a human cervical cancer cell line and WI38 is a normal healthy cell line. The cell lines were obtained from the American Type Culture Collection. The cell-lines were maintained in monolayer culture in 75 cm2 flasks (TPP, Switzerland) under a humidified 5% CO2 atmosphere at 37° C. The HeLa cell line was maintained in Dulbecco's Modified Eagles Media (DMEM; Invitrogen) supplemented with foetal bovine serum (10% v/v; Invitrogen), L-glutamine (2 mM; Invitrogen), non-essential amino acids (1×; Invitrogen) and Penicillin-Streptomycin (1% v/v, Invitrogen). For WI38, Eagle's Minimum Essential Medium, and Penicillin-Streptomycin (1% v/v, Invitrogen) and foetal bovine serum (10%, nvitrogen) was used. For passaging, cells were washed with phosphate buffered saline [PBS] (GIBCO 14040, Invitrogen, UK), incubated with trypsine (GIBCO 25300, Invitrogen, UK), and re-seeded into fresh medium. For seeding, cells were counted using a Neubauer haemocytometer (Assistant, Germany) by microscopy (Nikon, USA) on a non-adherent suspension of cells that were washed in PBS, trypsinised, centrifuged at 8° C. at 8000 rpm for 5 min and re-suspended in fresh medium.
(§15) The cells were grown in normal cell culture conditions at 37° C. under a 5% CO2 humidified atmosphere using appropriate medium. The cell count was adjusted to 10^5 cells/ml/ and 20,000 cells were added per well. The cells were incubated for 24 hours and 1 μl of the appropriate inhibitor concentrations were to the wells in triplicates. After 24 h of continuous exposure to each compound, the cytotoxicity was determined using the MIT (3-(4,5-Dimethylthiazol-2-yl)-2,5-diphenyltetrazolium bromide) (Lancaster Synthesis Ltd, UK) colorimetric assay. Absorbance was quantified by spectrophotometry at λ=570 nm (Envision Plate Reader, PerkinElmer, USA). IC50 values were calculated by a dose-response analysis using the Prism Graphpad Prism® software. The cytotoxicity results are shown below in Table 12.

[8] = test system: WI38 (Healthy cell line); experiment: MTT cytotoxicity assay; assay type: cell-based; conditions: Homo sapiens, WI-38; MTT; 24 h continuous exposure; highest concentration tested 20 μM; read-out: IC50 WI38 (Healthy cell line)
Description: as §14, §15

[9] = test system: K. pneumonia M6; experiment: General MIC protocol, Gram negative; assay type: cell-based; conditions: Klebsiella pneumoniae; KP-M6
Description: as §1, §2, §3, §4, §5, §6, §7, §8, §9, §10, §11, §12, §13

[10] = test system: P. aeruginosa PA01; experiment: General MIC protocol, Gram negative; assay type: cell-based; conditions: Pseudomonas aeruginosa
Description: as §1, §2, §3, §4, §5, §6, §7, §8, §9, §10, §11, §12, §13

[11] = test system: A. baumannii AYE; experiment: General MIC protocol, Gram negative; assay type: cell-based; conditions: Acinetobacter baumannii
Description: as §1, §2, §3, §4, §5, §6, §7, §8, §9, §10, §11, §12, §13

[12] = test system: P. aeruginosa NCTC 13437; experiment: General MIC protocol, Gram negative; assay type: cell-based; conditions: Pseudomonas aeruginosa, NCTC13437
Description: as §1, §2, §3, §4, §5, §6, §7, §8, §9, §10, §11, §12, §13

[13] = test system: K. pneumonia NCTC 13368; experiment: General MIC protocol, Gram negative; assay type: cell-based
Description: as §1, §2, §3, §4, §5, §6, §7, §8, §9, §10, §11, §12, §13

[14] = test system: A. baumannii NCTC 17978; experiment: General MIC protocol, Gram negative; assay type: cell-based; conditions: Acinetobacter baumannii, NCTC17978
Description: as §1, §2, §3, §4, §5, §6, §7, §8, §9, §10, §11, §12, §13

[15] = test system: Psueudomonas GH12; experiment: General MIC protocol, Gram negative; assay type: cell-based; conditions: Pseudomonas
Description: as §1, §2, §3, §4, §5, §6, §7, §8, §9, §10, §11, §12, §13
The activity of the compound designated PP-A148 was tested against an extended panel of Klebsiella and Pseudomonas Gram-negative bacterial strains that have proven drug resistant difficult to treat. […] The minimum inhibitory concentration (MIC) was measured using the general MIC protocol given above.

[16] = test system: K. pneumonia NCTC 13443; experiment: General MIC protocol, Gram negative; assay type: cell-based; conditions: K. pneumonia NCTC 13443
Description: as §1, §2, §3, §4, §5, §6, §7, §8, §9, §10, §11, §12, §13

[17] = test system: K. pneumonia NCTC 13438; experiment: General MIC protocol, Gram negative; assay type: cell-based; conditions: K. pneumonia NCTC 13438
Description: as §1, §2, §3, §4, §5, §6, §7, §8, §9, §10, §11, §12, §13

[18] = test system: K. pneumonia NCTC 13439; experiment: General MIC protocol, Gram negative; assay type: cell-based; conditions: K. pneumonia NCTC 13439
Description: as §1, §2, §3, §4, §5, §6, §7, §8, §9, §10, §11, §12, §13

[19] = test system: K. pneumonia NCTC 51851; experiment: General MIC protocol, Gram negative; assay type: cell-based; conditions: K. pneumonia NCTC 51851
Description: as §1, §2, §3, §4, §5, §6, §7, §8, §9, §10, §11, §12, §13

[20] = test system: K. pneumonia KP16; experiment: General MIC protocol, Gram negative; assay type: cell-based; conditions: K. pneumonia KP16
Description: as §1, §2, §3, §4, §5, §6, §7, §8, §9, §10, §11, §12, §13

[21] = test system: K. pneumonia MGH 78578; experiment: General MIC protocol, Gram negative; assay type: cell-based; conditions: K. pneumonia MGH 78578
Description: as §1, §2, §3, §4, §5, §6, §7, §8, §9, §10, §11, §12, §13

[22] = test system: Klebsiella KP 342; experiment: General MIC protocol, Gram negative; assay type: cell-based; conditions: KP342
Description: as §1, §2, §3, §4, §5, §6, §7, §8, §9, §10, §11, §12, §13
The minimum inhibitory concentration (MIC) was measured using the general MIC protocol given above.

[23] = test system: resistant mutants of KP 13438; experiment: MIC following resistance development; assay type: cell-based, Klebsiella; conditions: KP 13438; following resistance development
Description: as §1, §2, §3, §4, §5, §6, §7, §8, §9, §10, §11, §12, §13
(§16) The MIC of PP-A418 and colistin against the strains used in the time kill analysis of Example 31 following resistance development were measured. The MIC was measured using the general MIC protocol given above. The results are given in Table 14 below where the MIC values of resistant mutants are shown in the brackets.

[24] = test system: resistant mutants of KP 16; experiment: MIC following resistance development; assay type: cell-based, Klebsiella; conditions: KP 16; following resistance development
Description: as §1, §2, §3, §4, §5, §6, §7, §8, §9, §10, §11, §12, §13, §16

[25] = test system: resistant mutants of KP 13368; experiment: MIC following resistance development; assay type: cell-based, Klebsiella; conditions: KP 13368; following resistance development
Description: as §1, §2, §3, §4, §5, §6, §7, §8, §9, §10, §11, §12, §13, §16

## CCN(CC)C(=O)c1cc2cc(NC(=O)c3cc(NC(=O)CCCOc4cc5c(cc4OC)C(=O)N4CCC[C@H]4C=N5)cn3C)ccc2o1 [PP-B27, (S)—N-(2-(diethylcarbamoyl)benzofuran-5-yl)-4-(4-((7-methoxy-5-oxo-2,3,5,11a-tetrahydro-1H-benzo[e]pyrrolo[1,2-a][1,4]-diazepin-8-yl)oxy)butanamido)-1-methyl-1H-pyrrole-2-carboxamide]
[1]
  MIC: < 0.125 mg/L
[2]
  MIC: 0.5 mg/L (≈ 0.748 µM)
[3]
  MIC: 0.25 mg/L (≈ 0.374 µM)
[4]
  MIC: < 0.125 mg/L
[5]
  MIC: 0.25 mg/L (≈ 0.374 µM)
[6]
  MIC: < 0.125 mg/L
[7]
  IC50: > 20 µM
[8]
  IC50: > 20 µM
[9]
  MIC: 8 mg/L (≈ 12 µM)
[10]; PA01, PA01
  MIC: 128 mg/L (≈ 191 µM)
[11]
  MIC: 4 mg/L (≈ 5.98 µM)
[12]
  MIC: 32 mg/L (≈ 47.9 µM)
[13]; Klebsiella pneumoniae, NCTC13368
  MIC: 64 mg/L (≈ 95.7 µM)
[14]
  MIC: 4 mg/L (≈ 5.98 µM)

## C[C@H]1COc2c(N3CCN(C)CC3)c(F)cc3c(=O)c(C(=O)O)cn1c23 [Levofloxacin, levofloxacin]
[15]
  MIC: > 16 mg/L
[16]; Klebsiella pneumoniae, NCTC13443, read-out: MIC
  MIC: > 16 mg/L
[17]; Klebsiella pneumoniae, NCTC13438, read-out: MIC
  MIC: > 16 mg/L
[18]; Klebsiella pneumoniae, NCTC13439, read-out: MIC
  MIC: 16 mg/L (≈ 44.3 µM)
[19]; Klebsiella pneumoniae, NCTC51851, read-out: MIC
  MIC: > 16 mg/L
[20]; Klebsiella pneumoniae, read-out: MIC
  MIC: 8 to 16 mg/L (≈ 22.1 to 44.3 µM)
[10]; PA01, read-out: MIC
  MIC: 4 mg/L (≈ 11.1 µM)
[21]; Klebsiella pneumoniae, MGH78578, read-out: MIC
  MIC: 1 mg/L (≈ 2.77 µM)
[22]; Klebsiella KP 342, read-out: MIC
  MIC: 0.5 to 1 mg/L (≈ 1.38 to 2.77 µM)

## colistin [reference compound]
[23]
  MIC of resistant mutants (in brackets): (64-128) μg/ml
[24]
  MIC of resistant mutants (in brackets): (64-128) μg/ml
[25]
  MIC of resistant mutants (in brackets): (32-64) μg/ml
[16]
  MIC: 2 mg/L
[17]
  MIC: 2 mg/L
[18]
  MIC: 4 mg/L
[19]
  MIC: 64 mg/L
[20]
  MIC: 2 to 4 mg/L
[20]; listed as Collistin
  MIC: 1 mg/L
[21]
  MIC: 8 mg/L
[13]; KP NCTC 13368
  MIC: 4 mg/L
[22]; Klebsiella
  MIC: 4 mg/L
